Measured values as given in paper PMC9630261 (2022).

What was measured:
Assay in all cases: fluorescence quenching titration of drug with DNA
[1] = tested on: Q0 (DNA, aptamer) GGCGACAAGGAAAATCCTTCAACGAAGTGGGTCGCC; settings: Na+ (50 mM NaH2PO4, adjusted with NaOH); pH 7.00, 20 °C; KD corrected for stoichiometry (per site)
[2] = tested on: Q1 (DNA, aptamer) GACAAGGAAAATCCTTCAACGAAGTGGGTCG; settings: Na+ (50 mM NaH2PO4, adjusted with NaOH); pH 7.00, 20 °C; KD corrected for stoichiometry (per site)
[3] = tested on: Q2 (DNA, aptamer) GGCGACAAGGAAAATCCTTTCACGAAGTGGGTCGCCG; settings: Na+ (50 mM NaH2PO4, adjusted with NaOH); pH 7.00, 20 °C; KD corrected for stoichiometry (per site)
[4] = tested on: D0-L-thioate (DNA, duplex, phosphorothioate at all 23 linkages) CGCGCGCGCGCGCGCGCGCGCGCG; settings: in serum (mouse serum), 37 °C, KD corrected for stoichiometry (per site)
[5] = tested on: D0-thioate (D0-PS) (DNA, duplex, phosphorothioate at all 11 linkages) CGCGCGCGCGCG; settings: in serum (mouse serum), 37 °C, KD corrected for stoichiometry (per site)
[6] = tested on: D0 (DNA, duplex) CGCGCGCGCGCG; settings: Na+ (50 mM Na2HPO4, 100 mM NaCl), pH 7.00, 20 °C, KD corrected for stoichiometry (per site)
[7] = tested on: D2 (DNA, G4) GGTTGGTGTGGTTGG; settings: K+ (50 mM K2HPO4, 100 mM KCl per Methods; Table S2 says phosphate sodium), pH 7.00, 20 °C, KD corrected for stoichiometry (per site)
[8] = tested on: D1 (same sequence as G-quad) (DNA, G4) GGGCTTTTGGGC; settings: K+ (50 mM K2HPO4, 100 mM KCl per Methods; Table S2 says phosphate sodium), pH 7.00, 20 °C, KD corrected for stoichiometry (per site)
[9] = tested on: D0-L-thioate-C16 (DNA, duplex, phosphorothioate at all 23 linkages) CGCGCGCGCGCGCGCGCGCGCGCG; settings: in serum (mouse serum), 37 °C, KD corrected for stoichiometry (per site)

KD [1]	KD [2]	KD [3]	KD [4]	KD [5]	KD [6]	KD [7]	KD [8]	KD [9]	Compound
0.0897 ± 0.01 µM	0.198 ± 0.006 µM	2.74 ± 0.2 µM							C=C[C@H]1CN2CC[C@H]1C[C@H]2[C@H](O)c1ccnc2ccc(OC)cc12
			0.592 ± 0.1 µM	1.02 ± 0.02 µM	0.133 ± 0.02 µM	3.76 ± 0.3 µM	0.703 ± 0.08 µM	0.578 ± 0.1 µM	COc1cccc2c1C(=O)c1c(O)c3c(c(O)c1C2=O)C[C@@](O)(C(=O)CO)C[C@@H]3O[C@H]1C[C@H](N)[C@H](O)[C@H](C)O1
